The source of these data is ChEMBL document CHEMBL1122192, “Nitro and amino derivatives of lucanthone as antitumor agents” (1982).

Assay [1] relates to P388. Description: In vivo antitumor activity against P-388 lymphocytic leukemia at the dose of 100 mg/kg. The assay is classed as functional, Mus musculus.
The test system of assay [2] is P388. The assay can be described thus: In vivo antitumor activity against P-388 lymphocytic leukemia at the dose of 200 mg/kg. The class given is functional, Mus musculus.
The test system of assay [3] is P388. Description: In vivo antitumor activity against P-388 lymphocytic leukemia at the dose of 50 mg/kg. The assay is classed as functional, Mus musculus.
Assay [4] concerns P388. The assay can be described thus: In vivo antitumor activity against P-388 lymphocytic leukemia at the dose of 200 mg/kg; Toxic. The assay is classed as functional, organism-based. On the set-up: dose 200 mg/kg. As to conditions: Mus musculus.
The test system of assay [5] is P388. The assay can be described thus: In vivo antitumor activity against P-388 lymphocytic leukemia at the dose of 12.5 mg/kg. The assay is classed as functional, Mus musculus.
Assay [6] deals with P388. Description: In vivo antitumor activity against P-388 lymphocytic leukemia at the dose of 25 mg/kg. The assay is classed as functional, Mus musculus.

`CCN(CC)CCNc1ccc(C)c2sc3c(N)cccc3c(=O)c12`: the T/C in assay [1] is reported as 113; in assay [2], 123; in assay [3] it was 100.

As to `CN(C)CCNc1ccc(N)c2sc3ccccc3c(=O)c12`, the T/C was 121 in assay [1], “Toxic” in assay [4] and 100 in assay [3].

As to `O=c1c2ccccc2sc2c([N+](=O)[O-])ccc(NCCNCCO)c12`, the T/C in assay [5] came to 133; in assay [6], 141; in assay [3] it was 120.

The compound `Nc1ccc(NCCNCCO)c2c(=O)c3ccccc3sc12` displayed a T/C in assay [3] of 132.

With `CCN(CC)CCNc1ccc(N)c2sc3ccccc3c(=O)c12`, the T/C amounted to 122 in assay [1], 125 in assay [2] and 107 in assay [3].

As for `CCN(CC)CCNc1ccc([N+](=O)[O-])c2sc3ccccc3c(=O)c12`, the values for the T/C in assay [1], in assay [2] and in assay [3] were 145, 178 and 142, respectively.

On to `CN(C)CCNc1ccc([N+](=O)[O-])c2sc3ccccc3c(=O)c12`, for which the T/C in assay [1] turned out to be 103; in assay [5] it was 114; in assay [6], 135; in assay [3] it was 143.

As for `CCN(CC)CCNc1ccc(C)c2sc3ccc(N)cc3c(=O)c12`, the T/C in assay [5] is given as 120; in assay [6], 103; in assay [3] it was 138.
